Measured values reported in the supplement of paper PMC11451515.

Tested on: P12-Ichikawa
Test: cell viability relative to DMSO control; higher = less cytotoxic
Conditions: 48 h
Summary of the method: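 NOMO1 or SEM cells were plated at 500 cells/well and P12-Ichikawa cells at 1000 cells/well in 1536-well plates (5 μl), after each leukemia line had been adapted for at least four passages in each medium. Pin dosing delivered library compounds in DMSO at 11 threefold concentrations, 47 μM to 0.79 nM. CellTiter-Glo One luminescence was read after 48 h at 37°C. Viability is reported as a per-plate percentage of DMSO wells, with cell-free wells as background.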

[1] = HPLM + 10% dialyzed FBS, 0.000781 µM
[2] = HPLM + 10% dialyzed FBS, 0.00234 µM
[3] = HPLM + 10% dialyzed FBS, 0.00702 µM
[4] = HPLM + 10% dialyzed FBS, 0.0211 µM
[5] = HPLM + 10% dialyzed FBS, 0.0632 µM
[6] = HPLM + 10% dialyzed FBS, 0.19 µM
[7] = HPLM + 10% dialyzed FBS, 0.569 µM
[8] = HPLM + 10% dialyzed FBS, 1.71 µM
[9] = HPLM + 10% dialyzed FBS, 5.12 µM
[10] = HPLM + 10% dialyzed FBS, 15.4 µM
[11] = HPLM + 10% dialyzed FBS, 46.1 µM
[12] = RPMI 5 mM glucose + 10% FBS, 0.000781 µM
[13] = RPMI 5 mM glucose + 10% FBS, 0.00234 µM
[14] = RPMI 5 mM glucose + 10% FBS, 0.00702 µM
[15] = RPMI 5 mM glucose + 10% FBS, 0.0211 µM
[16] = RPMI 5 mM glucose + 10% FBS, 0.0632 µM
[17] = RPMI 5 mM glucose + 10% FBS, 0.19 µM
[18] = RPMI 5 mM glucose + 10% FBS, 0.569 µM
[19] = RPMI 5 mM glucose + 10% FBS, 1.71 µM
[20] = RPMI 5 mM glucose + 10% FBS, 5.12 µM
[21] = RPMI 5 mM glucose + 10% FBS, 15.4 µM
[22] = RPMI 5 mM glucose + 10% FBS, 46.1 µM
[23] = RPMI 5 mM glucose + 10% dialyzed FBS, 0.000781 µM
[24] = RPMI 5 mM glucose + 10% dialyzed FBS, 0.00234 µM
[25] = RPMI 5 mM glucose + 10% dialyzed FBS, 0.00702 µM
[26] = RPMI 5 mM glucose + 10% dialyzed FBS, 0.0211 µM
[27] = RPMI 5 mM glucose + 10% dialyzed FBS, 0.0632 µM
[28] = RPMI 5 mM glucose + 10% dialyzed FBS, 0.19 µM
[29] = RPMI 5 mM glucose + 10% dialyzed FBS, 0.569 µM
[30] = RPMI 5 mM glucose + 10% dialyzed FBS, 1.71 µM
[31] = RPMI 5 mM glucose + 10% dialyzed FBS, 5.12 µM
[32] = RPMI 5 mM glucose + 10% dialyzed FBS, 15.4 µM
[33] = RPMI 5 mM glucose + 10% dialyzed FBS, 46.1 µM

Compound	cell viability [1]	cell viability [2]	cell viability [3]	cell viability [4]	cell viability [5]	cell viability [6]	cell viability [7]	cell viability [8]	cell viability [9]	cell viability [10]	cell viability [11]	cell viability [12]	cell viability [13]	cell viability [14]	cell viability [15]	cell viability [16]	cell viability [17]	cell viability [18]	cell viability [19]	cell viability [20]	cell viability [21]	cell viability [22]	cell viability [23]	cell viability [24]	cell viability [25]	cell viability [26]	cell viability [27]	cell viability [28]	cell viability [29]	cell viability [30]	cell viability [31]	cell viability [32]	cell viability [33]
CC(O)C1C2C(C)\C(=C(/N2C1=O)C(O)=O)SC3CNC(C3)C(=O)N(C)C (stereo not given)	84%	82.1%	86.8%	88.3%	93.2%	92.9%	99.6%	96.5%	90.4%	92.8%	88.1%	77.1%	78.2%	79.4%	81.7%	82.3%	85.5%	82.7%	77.6%	84.7%	88.2%	85.6%	85.7%	80%	85.8%	88%	88.8%	89.2%	86.2%	86.2%	86.5%	88.2%	95.5%
CNC(=O)[C@H](CC/1=C/N=C\2/C=C\C\C=C12)NC(=O)[C@H](CC(C)C)CC(=O)NO	116%	108%	103%	99.5%	116%	111%	116%	105%	108%	30.9%	29.8%	99.5%	107%	98%	102%	108%	108%	113%	106%	97.9%	28.4%	33.3%	105%	107%	107%	112%	115%	114%	114%	105%	107%	24.7%	32.1%
CC[C@]1(O)C[C@@H]2CN(CCc3c([nH]c4ccccc34)[C@@](C(=O)OC)(c3cc4c(cc3OC)N(C)[C@H]3[C@@](O)(C(N)=O)[C@H](O)[C@]5(CC)C=CCN6CC[C@]43[C@@H]65)C2)C1	112%	109%	112%	97.5%	78.4%	18.3%	20.5%	14.2%	7.56%	7.86%	9.96%	109%	115%	115%	98.6%	65.8%	16.7%	22.7%	14%	8.37%	6.73%	6.12%	111%	103%	106%	104%	101%	34.3%	22.8%	29.1%	13.8%	10.1%	11.5%
COc1ccc2cc1Oc1ccc(cc1)C[C@H]1c3cc(c(OC)cc3CCN1C)Oc1c(OC)c(OC)cc3c1[C@H](C2)N(C)CC3	113%	122%	118%	118%	110%	114%	113%	101%	96.8%	98.3%	63.2%	123%	118%	115%	117%	113%	111%	112%	111%	103%	91.2%	49.1%	114%	111%	115%	106%	113%	103%	105%	103%	102%	95.6%	58.5%
OCc1ccc(-c2ccc(-c3ccc(CO)s3)o2)s1	116%	116%	106%	116%	101%	105%	102%	106%	98%	97.8%	87.3%	–	–	–	–	–	–	–	–	–	–	–	118%	123%	130%	125%	118%	109%	104%	95.4%	96.3%	91%	78.6%
CC(C)Cc1ccc(C(C)C(=O)O)cc1 (stereo not given)	86.1%	86%	92.1%	90%	91.9%	98.2%	92.8%	95.4%	96.6%	92.4%	95.4%	90.4%	90.9%	84.5%	85%	87.5%	89.2%	81.8%	90.3%	82.1%	77.6%	81%	86.7%	91.6%	83.9%	83.2%	88.3%	89.8%	79.1%	81.7%	80.9%	84.5%	95.6%
COc1cccc2c1[C@]13CCN(CC4CC4)[C@H](C2)[C@]1(OC)CCC(=O)C3	99.7%	120%	66.7%	124%	125%	122%	121%	121%	127%	116%	119%	94.6%	113%	56.9%	110%	136%	129%	127%	121%	123%	117%	123%	92.9%	120%	68.7%	120%	123%	127%	133%	118%	122%	127%	116%
